Data from ChEMBL document CHEMBL1126294, “Benz[f]isoquinoline analogues as high-affinity sigma ligands” (J Med Chem, 1992).

Molecular target: D(2) dopamine receptor (Rattus norvegicus, UniProt P61169)
Experiment: Inhibition of [3H](-)-sulpiride binding to rat striatum dopamine receptor D2
Format: tissue-based

Sequence of D(2) dopamine receptor (P61169 whole entry): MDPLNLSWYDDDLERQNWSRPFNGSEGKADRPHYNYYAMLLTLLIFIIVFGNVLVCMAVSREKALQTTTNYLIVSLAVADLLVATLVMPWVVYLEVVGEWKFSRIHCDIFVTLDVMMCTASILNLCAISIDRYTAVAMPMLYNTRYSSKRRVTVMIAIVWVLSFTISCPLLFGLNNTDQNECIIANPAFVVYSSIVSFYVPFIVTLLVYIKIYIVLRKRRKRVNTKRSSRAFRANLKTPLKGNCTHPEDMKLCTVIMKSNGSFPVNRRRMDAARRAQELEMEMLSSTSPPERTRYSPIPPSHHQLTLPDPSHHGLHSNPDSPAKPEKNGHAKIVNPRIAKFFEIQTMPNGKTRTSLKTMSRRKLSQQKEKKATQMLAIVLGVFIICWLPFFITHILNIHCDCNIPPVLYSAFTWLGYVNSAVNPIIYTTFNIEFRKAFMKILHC

SMILES	IC50
CCCCN1CC[C@@H]2c3ccccc3CC[C@H]2C1	389 nM
c1ccc(CCN2CC[C@H]3c4ccccc4CC[C@H]3C2)cc1	162 nM
COc1ccc(CN2CC[C@H]3c4ccccc4CC[C@H]3C2)cc1	35.5 nM
CCCCN1CCC2=C(CCc3ccccc32)C1	63.1 nM
CC(C)(C)c1ccc(CN2CC[C@H]3c4ccccc4CC[C@H]3C2)cc1	288 nM
CCCCN1CC[C@H]2c3ccccc3CC[C@H]2C1	145 nM
CCCCN1CCC2=C(CCCc3ccccc32)C1	61.7 nM
O=[N+]([O-])c1ccc(CCN2CC[C@H]3c4ccccc4CC[C@H]3C2)cc1	589 nM
CCCCN1CCC2=C(Cc3ccccc32)C1	60.3 nM
c1ccc2c(c1)CC[C@H]1CN(C3CCCCC3)CC[C@@H]21	2690 nM
c1ccc2c(c1)CC[C@H]1CN(C34C[C@H]5C[C@@H](C3)C[C@@H](C4)C5)CC[C@@H]21	> 10000 nM
CCCCN1CCC2c3ccccc3CCCC2C1 (configuration not stated)	166 nM
